{"source": "patent US8304557B2", "about": "“Fused heterocycle derivatives and use thereof” (Takeda Pharmaceutical Company Limited, priority 2007, dated 2012)", "key": {"[1]": {"molecular_target": "VEGFR2 intracellular domain protein (Homo sapiens, UniProt P35968)", "sequence (P35968 786-1356 limits assumed)": "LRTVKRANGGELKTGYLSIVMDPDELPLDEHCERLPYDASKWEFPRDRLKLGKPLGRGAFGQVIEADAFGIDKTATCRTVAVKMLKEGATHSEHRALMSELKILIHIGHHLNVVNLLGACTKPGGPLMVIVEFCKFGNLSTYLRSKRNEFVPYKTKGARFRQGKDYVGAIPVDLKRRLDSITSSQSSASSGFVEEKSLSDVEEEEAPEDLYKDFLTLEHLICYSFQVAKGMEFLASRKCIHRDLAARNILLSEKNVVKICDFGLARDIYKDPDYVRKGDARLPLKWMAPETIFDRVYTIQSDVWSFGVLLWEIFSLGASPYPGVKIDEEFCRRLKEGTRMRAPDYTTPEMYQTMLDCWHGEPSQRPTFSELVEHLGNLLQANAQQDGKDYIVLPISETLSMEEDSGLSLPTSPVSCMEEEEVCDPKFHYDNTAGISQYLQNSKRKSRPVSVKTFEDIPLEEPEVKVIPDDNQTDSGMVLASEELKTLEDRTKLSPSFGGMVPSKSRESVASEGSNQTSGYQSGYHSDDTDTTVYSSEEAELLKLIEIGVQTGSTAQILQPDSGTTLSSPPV", "experiment": "VEGF receptor 2 kinase inhibitory activity (AlphaScreen)", "details": "read-out: The inhibitory rate of the compounds at 1 μM (VEGF receptor 2 kinase)", "experimental": "Human vascular endothelial growth factor receptor 2 (hereinafter to be referred to as VEGFR2) gene was cloned by PCR using cDNA Libraries Human Placenta (Clontech) as a template.\nThe PCR reaction was conducted using a KOD-plus kit (TOYOBO). […] Furthermore, using BAC-TO-BAC Baculovirus Expression System (Invitrogen), virus stock BAC-VEGFR2 of recombinant baculovirus was prepared.\nSF-21 cells were sown at 1×10^6 cells/mL to Sf-900II SEM medium (1 L, Invitrogen) containing 10% fetal bovine serum (trace), 50 mg/L Gentamicin (Invitrogen) and 0.1% Pluronic F-68 (Invitrogen), and shaking culture was performed using a 2 L volume Erlenmeyer flask at 27° C., 100 rpm. After culturing for 24 hrs, recombinant baculovirus BAC-VEGFR2 (13.4 mL) was added to the mixture, and the mixture was further cultured for 3 days. The culture medium was centrifuged at 2,000 rpm for 5 min to give virus-infected cells. The infected cells were washed with a phosphate buffered saline (Invitrogen), centrifuged under the same conditions, and the cells were preserved at −80° C. The cryopreserved cells were thawed in ice, suspended in buffer A (50 mM Tris buffer (30 mL, pH 7.4) containing 20% glycerol, 0.15 M NaCl) supplemented with Complete Protease Inhibitor (Boehringer), and ruptured 3 times with a Polytron homogenizer (Kinematica) at 20,000 rpm for 30 sec. The ruptured medium was clarified by centrifugation at 40,000 rpm for 30 min and filtered with a 0.45 μm filter. The filtrate was passed through a column packed with Anti-FLAG M2 Affinity Gel (4 mL, Sigma) at a flow rate of about 0.5 mL/min. The column was washed with buffer A, and eluted with buffer A containing 100 μg/mL of FLAG peptide. The eluate was concentrated with Vivaspin 20 (Vivascience) having a molecular weight cut off of 30K. The buffer of this concentrate was exchanged using NAP™ 25 column (Amersham Bioscience) equilibrated with buffer A. The fractions containing intracellular domain protein of VEGFR2 were collected, glycerol was added to the final concentration of 50% and cryopreserved at −80° C.\nA test compound dissolved in DMSO was diluted with a buffer (50 mM Tris-HCl (pH 7.5), 5 mM MgCl2, 5 mM MnCl2, 2 mM dithiothreitol, 0.01% Tween-20). To this compound solution (5 μL) was added a buffer (10 μL) containing 50 ng/mL of VEGFR2 intracellular domain protein and 250 ng/mL of biotin labeled polypeptide biotinyl-poly-Glu:Tyr (4:1, CIS bio International). […] The reaction solution was allowed to stand at 25° C. for 16 hrs, and the wells were counted using a plate reader Fusion™ (PerkinElmer). The kinase inhibitory rate (%) of the test compound was calculated by the following formula: Inhibitory rate(%)=(1−(count of test compound−blank)÷(control−blank))×100"}, "[2]": {"molecular_target": "T1, Platelet-derived growth factor receptor α (PDGFRα) intracellular domain protein (Homo sapiens, UniProt P16234)", "T1 construct": "125 ng/ml of PDGFα intracellular domain protein (UPSTATE); purchased UPSTATE", "T1 sequence (P16234 550-1089 limits assumed)": "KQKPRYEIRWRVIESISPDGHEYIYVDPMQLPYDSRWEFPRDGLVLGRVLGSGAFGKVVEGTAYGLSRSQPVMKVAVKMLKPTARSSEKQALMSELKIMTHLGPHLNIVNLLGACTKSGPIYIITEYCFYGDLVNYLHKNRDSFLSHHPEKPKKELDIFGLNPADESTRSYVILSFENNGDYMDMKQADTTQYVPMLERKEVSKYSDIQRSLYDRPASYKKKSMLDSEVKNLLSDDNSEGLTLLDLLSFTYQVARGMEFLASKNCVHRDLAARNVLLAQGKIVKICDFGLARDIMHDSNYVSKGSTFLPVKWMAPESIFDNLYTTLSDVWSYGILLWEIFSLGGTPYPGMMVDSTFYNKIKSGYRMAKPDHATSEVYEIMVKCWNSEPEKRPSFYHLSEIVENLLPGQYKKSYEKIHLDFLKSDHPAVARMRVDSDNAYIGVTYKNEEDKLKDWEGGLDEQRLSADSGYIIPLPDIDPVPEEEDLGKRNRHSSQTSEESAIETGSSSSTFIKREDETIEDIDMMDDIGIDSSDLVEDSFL", "experiment": "PDGFRα kinase inhibitory activity (AlphaScreen)", "type": "biochemical", "details": "ATP 25 μM solution; 25° C., 30 min; read-out: IC50 value, PDGFRα kinase inhibition", "description": "(§1) A test compound dissolved in dimethyl sulfoxide (DMSO) was diluted with a buffer (50 mM Tris-HCl (pH 7.5), 5 mM MgCl2, 5 mM MnCl2, 2 mM dithiothreitol, 0.01% Tween-20). […] The reaction solution was allowed to stand at 25° C. for 16 hrs, and the wells were counted using a plate reader Fusion™ (PerkinElmer). The kinase inhibitory rate (%) of the test compound was calculated by the following formula: Inhibitory rate(%)=(1−(count of test compound−blank)÷(control−blank))×100\n(§2) The count of the solution reacted without addition of the compound was used as a “control”, and the count of the solution without the compound and ATP was used as a “blank”."}, "[3]": {"test_system": "Human umbilical vein vascular endothelial cells (HUVEC)", "experiment": "Vascular endothelial cell growth inhibitory test (VEGF-stimulated HUVEC, WST-8)", "type": "cell-based", "details": "120 h, VEGF 120 ng/mL solution added, 5 days of culture, read-out: IC50 value, vascular endothelial cell growth inhibition", "description": "To be specific, HUVEC was suspended in a vascular endothelial cell medium containing the aforementioned 3% bovine fetal serum and plated in a 96 well flat bottom plate by 50 μL (3000 cells) each well. After culture overnight, various concentrations of the test substance and 120 ng/mL of vascular endothelial growth factor (VEGF) were dissolved in a vascular endothelial cell medium containing 3% bovine fetal serum and added to each well by 50 μL. […] The absorbance at 450 nm was measured by a microtiter plate reader and the cell growth inhibitory activity was determined."}, "[4]": {"molecular_target": "T2, PDGFRβ intracellular domain protein (Homo sapiens, UniProt P09619)", "T2 construct": "125 ng/ml of PDGFRβ intracellular domain protein (UPSTATE); purchased UPSTATE", "T2 sequence (P09619 554-1106 limits assumed)": "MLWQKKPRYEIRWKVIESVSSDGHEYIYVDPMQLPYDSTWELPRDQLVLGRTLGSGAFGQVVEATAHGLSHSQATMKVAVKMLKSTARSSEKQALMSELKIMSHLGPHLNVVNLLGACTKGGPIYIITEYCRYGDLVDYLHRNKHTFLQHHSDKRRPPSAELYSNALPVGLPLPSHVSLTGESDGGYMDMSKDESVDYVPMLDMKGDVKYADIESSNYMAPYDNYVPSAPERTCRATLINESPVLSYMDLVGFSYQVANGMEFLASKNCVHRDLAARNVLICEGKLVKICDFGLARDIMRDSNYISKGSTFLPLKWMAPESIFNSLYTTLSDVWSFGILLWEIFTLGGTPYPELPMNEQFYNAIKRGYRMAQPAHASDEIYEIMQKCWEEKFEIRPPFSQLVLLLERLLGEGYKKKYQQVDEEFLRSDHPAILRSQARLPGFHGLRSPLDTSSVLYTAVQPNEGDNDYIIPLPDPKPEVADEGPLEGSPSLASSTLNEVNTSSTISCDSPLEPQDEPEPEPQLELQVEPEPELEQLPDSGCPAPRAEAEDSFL", "experiment": "PDGFRβ kinase inhibitory activity (AlphaScreen)", "type": "biochemical", "details": "ATP 50 μM solution; 25° C., 60 min; read-out: IC50 value, PDGFRβ kinase inhibition", "description": "as §1, with “hr,” for “hrs,”\nas §2"}, "BRAF (V600E) kinase": {"molecular_target": "T3, BRAF (V600E) kinase (Homo sapiens, UniProt P15056, V600E)", "T3 construct": "made in house; host or cells: SF-21 insect cells, recombinant baculovirus BAC-V600E", "T3 sequence (P15056 457-717 V600E limits assumed)": "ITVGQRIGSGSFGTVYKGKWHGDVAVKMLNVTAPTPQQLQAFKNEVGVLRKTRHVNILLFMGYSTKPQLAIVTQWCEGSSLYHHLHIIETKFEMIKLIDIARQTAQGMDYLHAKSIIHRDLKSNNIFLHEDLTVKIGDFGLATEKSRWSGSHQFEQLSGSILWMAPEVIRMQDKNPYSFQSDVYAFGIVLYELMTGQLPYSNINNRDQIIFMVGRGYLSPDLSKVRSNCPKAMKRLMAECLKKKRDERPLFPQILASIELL", "experiment": "BRAF (V600E) kinase inhibitory activity ([γ-32P]ATP, GST-MEK1 (K96R) substrate)", "type": "biochemical", "details": "1 μM compound; BRAF (V600E) 30 ng, GST-MEK1 (K96R) 250 ng; room temperature, 20 min; read-out: The inhibitory rate of the compounds at 1 μM (%)", "description": "Human BRAF gene was cloned by PCR using human Testis cDNA library (Clontech) as a template. The primer used for PCR was prepared from base sequence (Genbank Accession NM_004333) information of BRAF gene by adding a base sequence encoding flag peptide and a recognition sequence of the restriction enzyme to area encoding the BRAF kinase domain region, so that the protein contains an N-terminal Flag. The primer base sequence is shown below.\nThe PCR reaction was conducted using Pyrobest (Takara Shuzo Co., Ltd). The obtained PCR product was electrophoresed on agarose gel (1%), the DNA fragment amplified by PCR was recovered from the gel, and then digested with restriction enzymes EcoRI and SalI. The DNA treated with the restriction enzymes was electrophoresed on agarose gel (1%), and the obtained DNA fragment was recovered. The recovered DNA fragment was ligated to plasmid pFASTBAC1 (Invitrogen) digested with restriction enzymes EcoRI and SalI to give expression plasmid pFB-BRAF, and the base sequence of the insert fragment was confirmed. In addition, mutation was introduced into V600E using a Quick change Site Directed Mutagenesis kit (Stratagene). The nucleotide sequences of the primers used are shown in the following.\nThe obtained plasmid was sequenced to confirm the introduction of mutation into V600E. The plasmid DNA was digested with restriction enzymes EcoRI and SalI, DNA treated with the restriction enzymes was electrophoresed on agarose gel (1%), and the obtained DNA fragment was recovered. The recovered DNA fragment was ligated to plasmid pFASTBAC1 (Invitrogen) digested with restriction enzymes EcoRI and SalI to give expression plasmid pFB-V600E.\nSF-21 cells were sown at 1×10^6 cells/mL to Sf-900II SFM medium (1 L, Invitrogen) containing 10% fetal bovine serum (Trace), 50 mg/L Gentamicin (Invitrogen) and 0.1% Pluronic F-68 (Invitrogen), and shaking culture was performed using a 2 L volume Erlenmeyer flask at 27° C., 100 rpm. After culturing for 24 hr, recombinant baculovirus BAC-V600E (13.4 mL) was added to the mixture, and the mixture was further cultured for 3 days. […]"}}, "data": [{"compound": "Cc1cc(C(=O)Nc2cccc(Oc3ccn4nc(NC(=O)C5CC5)nc4c3)c2)n(C)n1", "note": "[Example 96-4, N-[3-({2-[(cyclopropylcarbonyl)amino][1,2,4]triazolo[1,5-a]pyridine-7-yl}oxy)phenyl]-1,3-dimethyl-1H-pyrazole-5-carboxamide]", "values": [{"measurement": "inhibition at 1 µM", "setting": "[1]", "value": "≥ 90", "unit": "%"}, {"measurement": "IC50", "setting": "[2]", "value": "≤ 500", "unit": "nM"}, {"measurement": "IC50", "setting": "[3]", "value": "≤ 500", "unit": "nM"}, {"measurement": "IC50", "setting": "[4]", "value": "≤ 500", "unit": "nM"}]}, {"compound": "Cc1cc(C(=O)Nc2cc(Oc3ccc4nc(NC(=O)C5CC5)nn4c3)ccc2F)n(C)n1", "note": "[Example 23-2, N-[5-({2-[(cyclopropylcarbonyl)amino][1,2,4]triazolo[1,5-a]pyridin-6-yl}oxy)-2-fluorophenyl]-1,3-dimethyl-1H-pyrazole-5-carboxamide]", "values": [{"measurement": "inhibition at 1 µM", "setting": "[1]", "value": "≥ 90", "unit": "%"}, {"measurement": "IC50", "setting": "[3]", "value": "≤ 500", "unit": "nM"}]}, {"compound": "Cc1cc(C(=O)Nc2cccc(Oc3ccc4nc(NC(=O)C5CC5)sc4c3)c2)n(C)n1", "note": "[Example 97-2, N-[3-({2-[(cyclopropylcarbonyl)amino]-1,3-benzothiazol-6-yl}oxy)phenyl]-1,3-dimethyl-1H-pyrazole-5-carboxamide]", "values": [{"measurement": "inhibition at 1 µM", "setting": "[1]", "value": "≥ 90", "unit": "%"}, {"measurement": "IC50", "setting": "[2]", "value": "≤ 500", "unit": "nM"}, {"measurement": "IC50", "setting": "[3]", "value": "≤ 500", "unit": "nM"}]}, {"compound": "O=C(Nc1cccc(Oc2ccc3nc(NC(=O)C4CC4)cn3c2)c1)c1cccc(C(F)(F)F)c1", "note": "[Example 226, N-[3-({2-[(cyclopropylcarbonyl)amino]imidazo[1,2-a]pyridin-6-yl}oxy)phenyl]-3-(trifluoromethyl)benzamide]", "values": [{"measurement": "inhibition at 1 µM", "setting": "BRAF (V600E) kinase", "value": 100, "unit": "%"}]}, {"compound": "Cc1nc(C(=O)Nc2cccc(Oc3ccc4nc(NC(=O)C5CC5)nn4c3)c2)c(C(F)(F)F)o1", "note": "[Example 22, N-[3-({2-[(cyclopropylcarbonyl)amino][1,2,4]triazolo[1,5-a]pyridin-6-yl}oxy)phenyl]-2-methyl-5-(trifluoromethyl)-1,3-oxazole-4-carboxamide]", "values": [{"measurement": "inhibition at 1 µM", "setting": "[1]", "value": "≥ 90", "unit": "%"}, {"measurement": "IC50", "setting": "[2]", "value": "≤ 500", "unit": "nM"}, {"measurement": "IC50", "setting": "[3]", "value": "≤ 500", "unit": "nM"}, {"measurement": "IC50", "setting": "[4]", "value": "≤ 500", "unit": "nM"}]}, {"compound": "Cc1cccnc1C(=O)Nc1cccc(Oc2ccc3nc(NC(=O)C4CC4)cn3c2)c1", "note": "[Example 7-4, N-[3-({2-[(cyclopropylcarbonyl)amino]imidazo[1,2-a]pyridin-6-yl}oxy)phenyl]-3-methylpyridine-2-carboxamide]", "values": [{"measurement": "inhibition at 1 µM", "setting": "[1]", "value": "≥ 90", "unit": "%"}, {"measurement": "IC50", "setting": "[2]", "value": "≤ 500", "unit": "nM"}, {"measurement": "IC50", "setting": "[3]", "value": "≤ 500", "unit": "nM"}, {"measurement": "IC50", "setting": "[4]", "value": "≤ 500", "unit": "nM"}]}, {"compound": "Cc1cc(C(=O)Nc2cc(Oc3ccc4nc(NC(=O)C5CC5)cn4c3)ccc2F)n(C)n1", "note": "[Example 9-2, N-[5-({2-[(cyclopropylcarbonyl)amino]imidazo[1,2-a]pyridin-6-yl}oxy)-2-fluorophenyl]-1,3-dimethyl-1H-pyrazole-5-carboxamide]", "values": [{"measurement": "inhibition at 1 µM", "setting": "[1]", "value": "≥ 90", "unit": "%"}, {"measurement": "IC50", "setting": "[2]", "value": "≤ 500", "unit": "nM"}, {"measurement": "IC50", "setting": "[3]", "value": "≤ 500", "unit": "nM"}, {"measurement": "IC50", "setting": "[4]", "value": "≤ 500", "unit": "nM"}]}, {"compound": "Cc1ccc(NC(=O)c2cccc(C(F)(F)F)c2)cc1Oc1ccc2nc(NC(=O)C3CC3)nn2c1", "note": "[Example 235, N-[3-({2-[(cyclopropylcarbonyl)amino][1,2,4]triazolo[1,5-a]pyridin-6-yl}oxy)-4-methylphenyl]-3-(trifluoromethyl)benzamide]", "values": [{"measurement": "inhibition at 1 µM", "setting": "BRAF (V600E) kinase", "value": 100, "unit": "%"}]}, {"compound": "Cc1cccc(C(=O)Nc2cccc(Oc3ccc4nc(NC(=O)C5CC5)cn4c3)c2)n1", "note": "[Example 127-2, N-[3-({2-[(cyclopropylcarbonyl)amino]imidazo[1,2-a]pyridin-6-yl}oxy)phenyl]-6-methylpyridine-2-carboxamide]", "values": [{"measurement": "inhibition at 1 µM", "setting": "[1]", "value": "≥ 90", "unit": "%"}, {"measurement": "IC50", "setting": "[2]", "value": "≤ 500", "unit": "nM"}, {"measurement": "IC50", "setting": "[3]", "value": "≤ 500", "unit": "nM"}, {"measurement": "IC50", "setting": "[4]", "value": "≤ 500", "unit": "nM"}]}, {"compound": "CCn1nc(C)cc1C(=O)Nc1cc(Oc2ccc3nc(NC(=O)C4CC4)nn3c2)ccc1F", "note": "[Example 72, N-[5-({2-[(cyclopropylcarbonyl)amino][1,2,4]triazolo[1,5-a]pyridin-6-yl}oxy)-2-fluorophenyl]-1-ethyl-3-methyl-1H-pyrazole-5-carboxamide]", "values": [{"measurement": "inhibition at 1 µM", "setting": "[1]", "value": "≥ 90", "unit": "%"}, {"measurement": "IC50", "setting": "[2]", "value": "≤ 500", "unit": "nM"}, {"measurement": "IC50", "setting": "[3]", "value": "≤ 500", "unit": "nM"}, {"measurement": "IC50", "setting": "[4]", "value": "≤ 500", "unit": "nM"}]}, {"compound": "CC(C)(C#N)c1cccc(C(=O)Nc2cccc(Oc3ccc4nc(NC(=O)C5CC5)nn4c3)c2)c1", "note": "[Example 231, 3-(1-cyano-1-methylethyl)-N-[3-({2-[(cyclopropylcarbonyl)amino][1,2,4]triazolo[1,5-a]pyridin-6-yl}oxy)phenyl]benzamide]", "values": [{"measurement": "inhibition at 1 µM", "setting": "BRAF (V600E) kinase", "value": 100, "unit": "%"}]}, {"compound": "CCNC(=O)Nc1cn2cc(Oc3ccc(F)c(NC(=O)c4cc(C)nn4C)c3)ccc2n1", "note": "[Example 10, N-{5-[(2-{[(ethylamino)carbonyl]amino}imidazo[1,2-a]pyridin-6-yl)oxy]-2-fluorophenyl}-1,3-dimethyl-1H-pyrazole-5-carboxamide]", "values": [{"measurement": "inhibition at 1 µM", "setting": "[1]", "value": "≥ 90", "unit": "%"}, {"measurement": "IC50", "setting": "[2]", "value": "≤ 500", "unit": "nM"}, {"measurement": "IC50", "setting": "[3]", "value": "≤ 500", "unit": "nM"}, {"measurement": "IC50", "setting": "[4]", "value": "≤ 500", "unit": "nM"}]}, {"compound": "Cc1cc(C(=O)Nc2cccc(Oc3ccc4nc(NC(=O)C5CC5)sc4n3)c2)n(C)n1", "note": "[Example 99, N-[3-({2-[(cyclopropylcarbonyl)amino][1,3]thiazolo[5,4-b]pyridin-5-yl}oxy)phenyl]-1,3-dimethyl-1H-pyrazole-5-carboxamide]", "values": [{"measurement": "inhibition at 1 µM", "setting": "[1]", "value": "≥ 90", "unit": "%"}, {"measurement": "IC50", "setting": "[2]", "value": "≤ 500", "unit": "nM"}, {"measurement": "IC50", "setting": "[3]", "value": "≤ 500", "unit": "nM"}]}, {"compound": "Cc1cc(C(=O)Nc2cc(Oc3ccc4nc(NC(=O)C5CC5)nn4c3)ccc2C)n(C)n1", "note": "[Example 17-2, N-[5-({2-[(cyclopropylcarbonyl)amino][1,2,4]triazolo[1,5-a]pyridin-6-yl}oxy)-2-methylphenyl]-1,3-dimethyl-1H-pyrazole-5-carboxamide]", "values": [{"measurement": "IC50", "setting": "[2]", "value": "≤ 500", "unit": "nM"}, {"measurement": "IC50", "setting": "[3]", "value": "≤ 500", "unit": "nM"}, {"measurement": "IC50", "setting": "[4]", "value": "≤ 500", "unit": "nM"}]}]}
